Experimental data taken from patent US20240018158A1, “BRM TARGETING COMPOUNDS AND ASSOCIATED METHODS OF USE” (Prelude Therapeutics Incorporated, priority 2020, published 2024).

Biological target: SMARCA2 (Homo sapiens (Human), UniProt P51531)
Assay: SMARCA2 HiBiT degradation assay in HEK293T cells
Format: cell-based
Conditions: 293T HiBiT assay, 24 h; for DC50: read-out: DC50 (SM2-293T) SMARCA2 degradation potency; for Dmax: HEK-293T, read-out: Dmax % (SM2-293T) maximum SMARCA2 degradation within the concentrations tested
Procedure: HiBiT peptide knock-in of SMARCA2 in LgBiT expressing HEK293T cells was performed by CRISPR-mediated tagging system as described Promega. The homozygous HiBiT knock-in on c-terminus SMARCA2 was confirmed by sanger sequence. SMARCA2-HiBiT knock-in Hela monoclonal cell (CS302366) and SMARCA4-HiBiT knock-in Hela monoclonal cell (CS3023226) were purchased from Promega. The heterozygous HiBiT-knock-in was confirmed by sanger sequence in both SMARCA2-HiBiT and SMARCA4-HiBiT monoclonal cells. Compounds were prepared in a low dead volume plate at 3-fold serial dilution, and then transferred 25 nL/well into a 384 well plate (Corning: #356661) by Agilent Bravo liquid dispenser. SMARCA2-HiBiT monoclonal HEK293T cells were added at 5,000/well/25 uL into the compound containing 384 well plate. After 24 h incubation, 25 uL/well of Nano-Glo HiBiT Lytic detection buffer (Promega: N3050) was added to the wells and incubate for 10 min on a shaker, centrifuged for 5 min, and then RLU was detected on a microplate reader (Envision, PerkinElmer). The RLU ratio values are normalized to percent inhibition as follows: % inhibition=((HC−LC)−(compound−LC))/(HC−LC))*100, where HC=high control=mean signal of DMSO only; LC=low control=mean signal of 100% inhibition of RLU by 1 μM PRT1001728. An 11-point dose response curve for each compound will be generated using normalized % inhibition to determine IC50 values based on the equation: Y=Bottom+((Top-Bottom)/(1+((IC50/X)^Slope))), where Y is the % inhibition in the presence of X inhibitor concentration; Top=the top plateau of the curve; Bottom=the bottom plateau of the curve; Slope=Hill coefficient; DC50=concentration of compound with 50% degradation in relation to top/high control. DC50 values were determined by using XLfit Model 205.

Chain of SMARCA2 (P51531 whole entry): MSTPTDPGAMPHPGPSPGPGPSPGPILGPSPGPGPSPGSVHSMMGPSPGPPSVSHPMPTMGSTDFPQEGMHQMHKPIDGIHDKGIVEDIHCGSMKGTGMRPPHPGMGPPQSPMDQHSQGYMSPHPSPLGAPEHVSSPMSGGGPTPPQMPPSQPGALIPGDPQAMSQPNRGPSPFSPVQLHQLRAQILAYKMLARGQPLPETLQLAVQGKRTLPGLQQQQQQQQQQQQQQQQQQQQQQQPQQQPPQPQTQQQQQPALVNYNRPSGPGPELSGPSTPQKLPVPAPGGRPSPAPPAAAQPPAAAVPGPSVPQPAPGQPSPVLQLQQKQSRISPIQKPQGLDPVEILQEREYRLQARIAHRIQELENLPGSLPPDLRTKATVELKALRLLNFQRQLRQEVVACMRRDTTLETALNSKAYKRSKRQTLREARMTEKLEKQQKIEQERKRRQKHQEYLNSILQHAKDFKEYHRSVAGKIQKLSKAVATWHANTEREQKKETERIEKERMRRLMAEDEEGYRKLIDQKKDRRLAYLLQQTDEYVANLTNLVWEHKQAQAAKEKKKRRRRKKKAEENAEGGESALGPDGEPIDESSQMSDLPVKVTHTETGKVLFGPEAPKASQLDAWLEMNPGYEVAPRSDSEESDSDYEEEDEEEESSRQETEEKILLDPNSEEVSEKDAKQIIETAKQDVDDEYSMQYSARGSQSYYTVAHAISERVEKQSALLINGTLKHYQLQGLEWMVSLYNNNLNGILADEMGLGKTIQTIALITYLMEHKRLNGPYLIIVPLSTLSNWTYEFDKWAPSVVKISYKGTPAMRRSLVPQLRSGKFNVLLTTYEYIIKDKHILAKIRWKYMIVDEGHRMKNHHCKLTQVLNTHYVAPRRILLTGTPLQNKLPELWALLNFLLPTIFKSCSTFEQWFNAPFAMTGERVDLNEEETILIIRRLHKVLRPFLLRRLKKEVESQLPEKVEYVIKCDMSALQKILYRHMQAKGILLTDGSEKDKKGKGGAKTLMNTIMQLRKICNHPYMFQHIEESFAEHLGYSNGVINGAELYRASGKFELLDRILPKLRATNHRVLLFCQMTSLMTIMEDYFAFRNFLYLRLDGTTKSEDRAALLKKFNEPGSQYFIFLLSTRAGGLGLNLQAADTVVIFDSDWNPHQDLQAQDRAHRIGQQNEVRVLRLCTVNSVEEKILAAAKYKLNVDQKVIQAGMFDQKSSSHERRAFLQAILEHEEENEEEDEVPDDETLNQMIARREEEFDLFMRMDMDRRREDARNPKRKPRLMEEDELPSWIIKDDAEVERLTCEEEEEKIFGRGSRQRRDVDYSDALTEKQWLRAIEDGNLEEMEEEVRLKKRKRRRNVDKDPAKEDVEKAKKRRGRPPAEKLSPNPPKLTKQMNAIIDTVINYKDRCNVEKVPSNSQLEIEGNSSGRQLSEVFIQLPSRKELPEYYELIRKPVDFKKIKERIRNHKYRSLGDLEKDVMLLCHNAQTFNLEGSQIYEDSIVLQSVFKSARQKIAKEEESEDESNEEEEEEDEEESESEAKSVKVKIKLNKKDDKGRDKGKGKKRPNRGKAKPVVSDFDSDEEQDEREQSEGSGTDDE

Cc1ncsc1-c1ccc([C@H](C)NC(=O)[C@@H]2C[C@@H](O)CN2C(=O)[C@@H](c2cc(OCCN3CCC(CCN4CCC(N5CCN6c7cc(-c8ccccc8O)nnc7NC[C@H]6C5)CC4)CC3)no2)C(C)C)cc1 [Example 22, (2S,4R)-4-hydroxy-1-((R)-2-(3-(2-(4-(2-(4-((S)-2-(2-hydroxyphenyl)-5,6,6a,7,9,10-hexahydro-8H-pyrazino[1′,2′:4,5]pyrazino[2,3-c]pyridazin-8-yl)piperidin-1-yl)ethyl)piperidin-1-yl)ethoxy)isoxazol-5-yl)-3-methylbutanoyl)-N-((S)-1-(4-(4-methylthiazol-5-yl)phenyl)ethyl)pyrrolidine-2-carboxamide]
DC50: < 100 nM | Dmax: > 75%

Cc1ncsc1-c1ccc([C@H](C)NC(=O)[C@@H]2C[C@@H](O)CN2C(=O)[C@@H](c2cc(OCCN3CCCC(CN4CCN5c6cc(-c7ccccc7O)nnc6NC[C@H]5C4)CC3)no2)C(C)C)cc1 (stereo partly drawn) [Example 84, (2S,4R)-4-hydroxy-1-((2R)-2-(3-(2-(4-(((S)-2-(2-hydroxyphenyl)-5,6,6a,7,9,10-hexahydro-8H-pyrazino[1′,2′:4,5]pyrazino[2,3-c]pyridazin-8-yl)methyl)azepan-1-yl)ethoxy)isoxazol-5-yl)-3-methylbutanoyl)-N-((S)-1-(4-(4-methylthiazol-5-yl)phenyl)ethyl)pyrrolidine-2-carboxamide]
DC50: < 100 nM | Dmax: > 75%

Cc1ncsc1-c1ccc([C@H](C)NC(=O)[C@@H]2C[C@@H](O)CN2C(=O)[C@@H](c2cc(OCCN3CCCC(N4CCN5c6cc(-c7ccccc7O)nnc6NC[C@H]5C4)CC3)no2)C(C)C)cc1 (stereo partly drawn) [Example 16, (2S,4R)-4-hydroxy-1-((2R)-2-(3-(2-(4-((S)-2-(2-hydroxyphenyl)-5,6,6a,7,9,10-hexahydro-8H-pyrazino[1′,2′:4,5]pyrazino[2,3-c]pyridazin-8-yl)azepan-1-yl)ethoxy)isoxazol-5-yl)-3-methylbutanoyl)-N-((S)-1-(4-(4-methylthiazol-5-yl)phenyl)ethyl)pyrrolidine-2-carboxamide]
DC50: < 100 nM | Dmax: > 75%

Cc1ncsc1-c1ccc([C@H](C)NC(=O)[C@@H]2C[C@@H](OC(=O)C(C)C)CN2C(=O)[C@@H](c2cc(OCCN3CCC(CN4CCN5c6cc(-c7ccccc7O)nnc6NC[C@H]5C4)CC3)no2)C(C)C)cc1 [Example 52, (3R,5S)-1-((R)-2-(3-(2-(4-(((S)-2-(2-hydroxyphenyl)-5,6,6a,7,9,10-hexahydro-8H-pyrazino[1′,2′:4,5]pyrazino[2,3-c]pyridazin-8-yl)methyl)piperidin-1-yl)ethoxy)isoxazol-5-yl)-3-methylbutanoyl)-5-(((S)-1-(4-(4-methylthiazol-5-yl)phenyl)ethyl)carbamoyl)pyrrolidin-3-yl isobutyrate]
DC50: < 100 nM | Dmax: > 75%

Cc1ncsc1-c1ccc([C@H](C)NC(=O)[C@@H]2C[C@@H](O)CN2C(=O)[C@@H](c2cc(OCCN3CC4CC(C3)C4N3CCN4c5cc(-c6ccccc6O)nnc5NCC4C3)no2)C(C)C)cc1 (stereo partly drawn) [Example 12, (2S,4R)-4-hydroxy-1-((2R)-2-(3-(2-(6-(2-(2-hydroxyphenyl)-5,6,6a,7,9,10-hexahydro-8H-pyrazino[1′,2′:4,5]pyrazino[2,3-c]pyridazin-8-yl)-3-azabicyclo[3.1.1]heptan-3-yl)ethoxy)isoxazol-5-yl)-3-methylbutanoyl)-N-((S)-1-(4-(4-methylthiazol-5-yl)phenyl)ethyl)pyrrolidine-2-carboxamide]
DC50: 100 to 1000 nM | Dmax: > 75%

Cc1ncsc1-c1ccc([C@H](C)NC(=O)[C@@H]2C[C@@H](O)CN2C(=O)[C@@H](c2cc(CCCN3CCN4c5cc(-c6ccccc6O)nnc5NCC4C3)no2)C(C)C)cc1 (stereo partly drawn) [Example 74, (2S,4R)-4-hydroxy-1-((2R)-2-(3-(3-(2-(2-hydroxyphenyl)-5,6,6a,7,9,10-hexahydro-8H-pyrazino[1′,2′:4,5]pyrazino[2,3-c]pyridazin-8-yl)propyl)isoxazol-5-yl)-3-methylbutanoyl)-N-((S)-1-(4-(4-methylthiazol-5-yl)phenyl)ethyl)pyrrolidine-2-carboxamide]
DC50: < 100 nM | Dmax: > 75%
